Experimental data reported in ChEMBL document CHEMBL4043117, “Potential peptidic proteasome inhibitors by incorporation of an electrophilic trap based on amino acid derived α-substituted sulfonyl fluorides” (Bioorg Med Chem, 2017).
Activity calls are given as the source filed them. No cut-off for these calls is given here.

Experiments:
[1] = organism: Homo sapiens; assay: Inhibition of human erythrocyte 20S proteasome at 0.002 to 400 uM using Suc-LLVY-AMC substrate incubated for 1 hr by fluorescence assay
[2] = organism: Homo sapiens; assay: Inhibition of human erythrocyte 20S proteasome at 0.002 to 400 uM using compounds dissolved in 20% v/v DMSO in presence of Suc-LLVY-AMC substrate incubated for 1 hr by fluorescence assay
[3] = Stability in PBS buffer at pH 8 assessed as half life for compound hydrolysis by HPLC method; assay type: physicochemical
[4] = Stability in PBS buffer at pH 6.5 assessed as half life for compound hydrolysis by HPLC method; assay type: physicochemical
[5] = Stability in PBS buffer at pH 7.4 assessed as half life for compound hydrolysis by HPLC method; assay type: physicochemical

| Structure (SMILES) | inhibition [1] | inhibition [2] | half-life [3] [h] | half-life [4] [h] | half-life [5] [h] |
| --- | --- | --- | --- | --- | --- |
| CC(C)C[C@H](NC(=O)OCc1ccccc1)C(=O)N[C@@H](CC(C)C)C(=O)N[C@@H](CC(C)C)C(=O)NC[C@H](Cc1ccccc1)S(=O)(=O)F | inactive | inactive |  |  |  |
| CC(C)C[C@@H](CS(=O)(=O)F)NC(=O)[C@H](CC(C)C)NC(=O)[C@H](CC(C)C)NC(=O)OCc1ccccc1 | Active |  | 10 to 12 | 10 to 12 | 10 to 12 |
| CC(C)C[C@@H](CNC(=O)[C@H](Cc1ccccc1)NC(=O)[C@H](CC(C)C)NC(=O)[C@H](CCc1ccccc1)NC(=O)CN1CCOCC1)S(=O)(=O)F | inactive | inactive |  |  |  |
| CC(C)C[C@@H](CS(=O)(=O)F)NC(=O)[C@H](CC(C)C)NC(=O)[C@H](CC(C)C)NC(=O)[C@H](CC(C)C)NC(=O)OCc1ccccc1 | Active |  | 10 to 12 | 10 to 12 | 10 to 12 |
| CC(C)C[C@@H](CNC(=O)[C@H](CC(C)C)NC(=O)[C@H](CC(C)C)NC(=O)[C@H](CC(C)C)NC(=O)OCc1ccccc1)S(=O)(=O)F | inactive | inactive | 5 to 7 | 5 to 7 | 5 to 7 |
| CC(C)C[C@@H](CNC(=O)[C@H](CC(C)C)NC(=O)[C@H](CC(C)C)NC(=O)OCc1ccccc1)S(=O)(=O)F | inactive | inactive | 5 to 7 | 5 to 7 | 5 to 7 |
| CC(C)C[C@H](NC(=O)[C@H](CCc1ccccc1)NC(=O)CN1CCOCC1)C(=O)N[C@@H](Cc1ccccc1)C(=O)NC[C@H](Cc1ccccc1)S(=O)(=O)F | inactive | inactive |  |  |  |
| CC(C)C[C@H](NC(=O)OCc1ccccc1)C(=O)N[C@@H](CC(C)C)C(=O)NC[C@H](Cc1ccccc1)S(=O)(=O)F | inactive | inactive |  |  |  |
